According to article PMC4346271 (Bioorganic & Medicinal Chemistry, 2015):

Legend:
[1] = target: hCB2R (Homo sapiens, UniProt P34972); assay: hCB2R cAMP assay; format: cell-based; settings: for agonist activity at the CB2R (in words): CHO cell cAMP assay
[2] = Solubility observations; format: physicochemical; settings: in the vehicle (DMSO) or under the assay conditions
[3] = Mouse liver microsome; format: in vitro ADME; settings: mouse liver microsomes, 37 °C, with NADPH
[4] = test system: panel of GPCRs; assay: GPCR off-target screen, whole panel; format: binding; settings: 1 μM; selection of 24 GPCRs (Table S3)
[5] = test system: panel of kinases; assay: Kinase off-target screen, whole panel; format: binding; settings: 10 μM; 97 kinases (Table S4)

Sequence of hCB2R (P34972 whole entry): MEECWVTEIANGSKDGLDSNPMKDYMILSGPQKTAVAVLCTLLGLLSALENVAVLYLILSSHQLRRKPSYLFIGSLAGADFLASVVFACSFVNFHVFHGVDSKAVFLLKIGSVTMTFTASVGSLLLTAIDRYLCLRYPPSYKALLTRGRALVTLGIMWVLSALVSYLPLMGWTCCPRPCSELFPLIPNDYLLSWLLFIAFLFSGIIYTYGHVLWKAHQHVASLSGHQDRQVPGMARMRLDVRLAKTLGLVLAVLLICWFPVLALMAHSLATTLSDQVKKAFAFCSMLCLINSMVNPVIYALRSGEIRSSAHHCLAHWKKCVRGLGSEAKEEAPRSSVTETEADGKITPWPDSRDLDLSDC

SMILES: Sc1nnc2c(n1)[nH]c1ccccc12 [Compound 9, 5H-[1,2,4]Triazino[5,6-b]indole-3-thiol]
- agonist activity at the CB2R (in words) [1]: no detectable agonist activity

SMILES: CN(C)c1ccc(C(=O)n2c3ccccc3c3nnc(SCc4ccccc4C#N)nc32)cc1 [Compound 78]
- solubility (in words) [2]: extremely poorly soluble under the assay conditions

SMILES: CC(=O)n1c2ccccc2c2nnc(SCc3ccccc3C#N)nc21 [Compound 66, 2′(((5-Acetyl-5H-[1,2,4]triazino[5,6-b]indol-3-yl)thio)methyl)benzonitrile]
- agonist activity at the CB2R (in words) [1]: no detectable activity

SMILES: N#Cc1ccccc1CSc1nnc2c3ccccc3n(C(=O)c3ccccc3)c2n1 [Compound 72]
- MLM stability t1/2 [3]: no parent compound could be detected at the earliest time point

SMILES: N#Cc1ccccc1CSc1nnc2c(n1)[nH]c1ccccc12 [Compound 7, 3-((2′-Cyanobenzyl)thio)-5H-[1,2,4]triazino[5,6-b]indole]
- EC50 [1]: 120 nM
- binding at any of the GPCRs tested [4]: no significant binding
- binding with any of the kinases tested [5]: no significant binding

SMILES: Fc1ccccc1CSc1nnc2c(n1)[nH]c1ccccc12 [Compound 14, 3-((2′-Fluorobenzyl)thio)-5H-[1,2,4]triazino[5,6-b]indole]
- agonist activity at the CB2R (in words) [1]: no activity up to the highest concentrations tested
